Measured values as given in patent US12116358B2, “Substituted indoles and methods of use thereof” (EPIZYME, INC., priority 2018, dated 2024).
Read-outs that look alike come from different tables or passages of the source.

Columns and labels:
H3K36me3 in A549 cells = test: In-Cell Western (ICW) assay of SETD2 inhibitors (A549 assay); type: cell-based, human; conditions: A549 cells, read-out: SETD2 A549
Description: In-Cell Western (ICW) Assay of SETD2 Inhibitors (A549 Assay)
Representative Compounds of the Disclosure were tested in the A549 assay according the following protocol.
1. Reagents and Consumables:
Prepare plates with compounds. Seed A549 cells to the plates with compounds, 4,000 cells/well, 50 μl/well. Put the plates at room temperature on a non-vibrating surface for 20 minutes before placing in the incubator. Incubate the plate at 37° C. incubator with CO2 for 3 days. Remove plate from incubator and bring to room temperature. Blot media out of the plate and add 50 μL of ice cold 100% methanol. Incubate 30 minutes at room temperature. Remove methanol by aspiration. Wash 3× with PBST. Add 50 μL of Blocking Buffer+0.1% Tween 20. Incubate 1 hour. Remove Blocking Buffer, wash 3× with PBST. Add 20 μL of H3K36me3 (1:1000 dilution). […] Incubate overnight at 4° C. Wash plate 5× with PBS-T. Add 20 μL of DRAQ5 (1:1000) and IRDye 800CW Goat anti-Rabbit IgG (1:500). Incubate for 1 hour in the dark. Wash plate 5× with PBS-T. Wash plate 3× with water. Dry by blotting on paper towel, then centrifuge plate upside down on a thin layer of paper towels for 1 minute at 1000 rpm to remove excess reagent. Leave plate uncovered for ˜10 minutes out of direct light before reading. Read on Licor instrument.
4. Licor Instrument Settings:
Preset: Plate; Resolution: 84 μm; Quality: low; Focus offset: 4.0; 700 channel intensity: 2; and 800 channel intensity: 3.

SETD2(1434-1711) = biological target: T1, SETD2(1434-1711) (Homo sapiens, UniProt Q9BYW2); test: SETD2 (1434-1711) assay; type: biochemical; conditions: read-out: SETD2 (1434-1711)
T1 construct: SETD2 (1434-1711) Assay; catalogue N/A
T1 sequence (Q9BYW2 1434-1711): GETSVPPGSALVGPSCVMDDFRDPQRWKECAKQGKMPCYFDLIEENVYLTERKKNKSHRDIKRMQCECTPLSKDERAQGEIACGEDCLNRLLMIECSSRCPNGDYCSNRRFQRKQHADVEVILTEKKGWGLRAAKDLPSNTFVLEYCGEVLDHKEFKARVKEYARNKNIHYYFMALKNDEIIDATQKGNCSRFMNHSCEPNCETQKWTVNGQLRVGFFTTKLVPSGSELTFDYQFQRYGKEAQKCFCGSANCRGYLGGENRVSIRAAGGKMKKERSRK

Compound | IC50 (H3K36me3 in A549 cells) | IC50 (SETD2(1434-1711)) | IC50 (H3K36me3 in A549 cells; Homo sapiens)
Cc1cc(-c2ccc(CN3CCOCC3)nc2)cnc1C(NC(=O)c1cc2cccc(C)c2[nH]1)C1CC1 (stereo not drawn) [compound 402] | 2500 nM | 300 nM | –
Cc1ccc(F)c2cc(C(=O)Nc3cccc(N4CCN(C(C)C)CC4C)c3)[nH]c12 (stereo not drawn) [compound 280] | – | 100 nM | 900 nM
Cc1cccc2cc(C(=O)NCCc3ccccc3N3CCC(CCN(C)C)CC3)[nH]c12 [compound 549] | > 25000 nM | 5800 nM | –
Cc1cccnc1C(CCC(=O)NC1CCOC1)NC(=O)c1cc2cccc(C)c2[nH]1 (stereo not drawn) [compound 571] | > 25000 nM | 15900 nM | –
CC(=O)N1CC2CCC(C1)N2[C@@H]1CCC[C@@H](NC(=O)c2cc3c(F)ccc(C)c3[nH]2)C1 [compound 953] | – | 3000 nM | > 2000 nM
Cc1ccc(F)c2cc(C(=O)Nc3cccc(N4C5CCC4COC5)c3)[nH]c12 [compound 291] | – | 300 nM | 1100 nM
Cc1cc(-c2ccc(N)nc2)cnc1C(NC(=O)c1cc2cccc(C)c2[nH]1)C1CC1 (stereo not drawn) [compound 426] | 3900 nM | 400 nM | –
CCN(CC)C1CCc2cc(NC(=O)c3cc4cccc(C)c4[nH]3)ccc2C1 (stereo not drawn) [compound 537] | – | 900 nM | > 25000 nM
Cc1noc(CN)c1C(NC(=O)c1cc2cccc(C)c2[nH]1)C1CC1 (stereo not drawn) [compound 602] | – | > 50000 nM | > 25000 nM
Cc1ccc(F)c2cc(C(=O)Nc3cnn(C4CCC(N(C)C)CC4)c3)[nH]c12 (stereo not drawn) [compound 565] | – | 11600 nM | > 25000 nM
Cc1ccc(F)c2cc(C(=O)Nc3cccc(N4CCN5CCCC5C4)c3)[nH]c12 (stereo not drawn) [compound 220] | 500 nM | 40 nM | –
Cc1cccnc1C(CN1CCOCC1)NC(=O)c1cc2cccc(C)c2[nH]1 (stereo not drawn) [compound 489] | – | 7900 nM | 11800 nM
Cc1cccc2cc(C(=O)Nc3cccc(N4CCN(C(=O)CN)CC4)c3)[nH]c12 [compound 396] | 2300 nM | 300 nM | –
Cc1ccc(F)c2cc(C(=O)NC3CCCC(N4CCCN(C)C(=O)C4)C3)[nH]c12 (stereo not drawn) [compound 387] | > 2000 nM | > 10000 nM | –
COCC1CN(c2cccc(NC(=O)c3cc4c(F)ccc(C)c4[nH]3)c2)CCO1 (stereo not drawn) [compound 133] | – | 100 nM | 300 nM
Cc1ccc(F)c2cc(C(=O)NC(C(=O)Nc3ccccc3)c3ccccn3)[nH]c12 (stereo not drawn) [compound 517] | 18500 nM | 3700 nM | –

Next, values leading:

IC50 (H3K36me3 in A549 cells) | IC50 (SETD2(1434-1711)) | IC50 (H3K36me3 in A549 cells; Homo sapiens) | Compound
1900 nM | 500 nM | – | Cc1ccc(F)c2cc(C(=O)N[C@@H]3CCCC(N4CCN(CC(=O)N(C)C)CC4)C3)[nH]c12 (stereo partly drawn) [compound 859]
> 2000 nM | 20 nM | – | CC(=O)N(C)C1CN(C2CCCC(NC(=O)c3cc4c(F)ccc(C)c4[nH]3)C2)C1 (stereo not drawn) [compound 960]
> 2000 nM | 800 nM | – | Cc1ccc(F)c2cc(C(=O)NC3CCCC(N4CCC(N(C)C(=O)CO)C4)C3)[nH]c12 (stereo not drawn) [compound 996]
> 25000 nM | > 200000 nM | – | Cc1cccc2cc(C(=O)NC3CCNC(=O)c4ccccc43)[nH]c12 (stereo not drawn) [compound 620]
– | 1400 nM | 1700 nM | CC(=O)N1CCN([C@@H]2CCC[C@@H](NC(=O)c3cc4c(F)ccc(C)c4[nH]3)C2)C[C@H]1CO [compound 1076]
– | 600 nM | > 2000 nM | Cc1ccc(F)c2cc(C(=O)N[C@@H]3CCC[C@@H](N4CCN5C(=O)NC[C@H]5C4)C3)[nH]c12 [compound 1082]
– | 10 nM | 60 nM | Cc1ccc(F)c2cc(C(=O)N[C@@H]3CCC[C@H](N4CCN(C(=O)OC5CCOCC5)CC4)C3)[nH]c12 [compound 999]
– | 10 nM | 10 nM | CC(=O)N1CCN([C@H]2CCC[C@@H](NC(=O)c3cc4c(F)ccc(C)c4[nH]3)C2)CC1C (stereo partly drawn) [compound 906]
> 2000 nM | 2800 nM | – | Cc1ccc(F)c2cc(C(=O)NC3CCCC(N4CCN5C(=O)CN(C)C(=O)C5C4)C3)[nH]c12 (stereo not drawn) [compound 1046]
> 25000 nM | 6000 nM | – | Cc1cccc2cc(C(=O)NC(C)c3ccccc3Cl)[nH]c12 (stereo not drawn) [compound 1154]
– | > 10000 nM | > 2000 nM | CC(=O)N1CCN([C@@H]2C[C@@H](NC(=O)c3cc4c(F)ccc(C)c4[nH]3)CN(C)C2)CC1 [compound 1108]
